Measured values reported in patent publication US9526720B2, “Modulators of hepatic lipoprotein metabolism” (The Broad Institute, Inc., priority 2012, dated 2016).
Like-named read-outs stand apart in the source and are kept apart here.

Legend:
ApoB = assay: ELISA of secreted ApoB in HepG2 cells; type: cell-based, human; design: key to ELISA 24 Hr (EC50 uM) ApoB decrease: A: EC50 between 0.0000001 μM≦0.5 μM; B: EC50 between 0.51 μM≦1.0 μM; EC50 between 1.1 μM≦2.0 μM; D: EC50 between 2.1 μM≦5.0 μM; EC50 between 5.1 μM≦10 μM; F: EC50>10 μM; NC: No change; details: for ELISA ApoB: HepG2 cells
Description: (§1) Additional secondary assays were performed in HepG2 cells to further characterize the cellular response to treatment with select confirmed TRIB1 inducer hits. The results of the ELISA, CTG, and qPCR secondary assays are summarized in Table B. For all secondary assays, the experiments were performed using powders of freshly purified compounds.
(§2) To further characterize the relationship of TRIB1 induction and PCSK9 reduction, ELISAs were performed to measure the levels of secreted ApoB, PCSK9, and LDLR. […] As predicted treatment with TRIB1 inducer hits caused a decrease in ApoB levels detected by ELISA. In parallel effort, 3200 BIOA and NATP compounds were screened for PCSK9 expression inhibitors. Hits were defined as inducing greater than 3-fold downregulation of PCSK9, and 3.8% of the screened compounds were confirmed as hits. […] In further experiments, a strong correlation was confirmed between TRIB1 induction and PCSK9 repression in DOS Collection hits. ELISA analysis confirmed that treatment with TRIB1 inducers reduced the PCSK9 protein levels. LDLR protein levels were also analyzed by ELISA to determine whether compounds that modulate both TRIB1 and PCSK9 had any effect on LDLR protein levels.

LDLR [1] = assay: ELISA of LDLR protein in HepG2 cells; type: cell-based, human; details: for EC50: Homo sapiens, HepG2, 24 h, read-out: ELISA 24 Hr (EC50 uM) LDLR increase; for ELISA LDLR: HepG2 cells
Description: as §1, §2

PCSK9 [2] = assay: ELISA of secreted PCSK9 protein in HepG2 cells; type: cell-based, human; details: for EC50: Homo sapiens, HepG2, 24 h, read-out: ELISA 24 Hr (EC50 uM) PCSK9 decrease; for ELISA PCSK9: HepG2 cells
Description: as §1, §2

PCSK9 [3] = assay: qPCR PCSK9 expression in HepG2 cells; type: cell-based, human; details: Homo sapiens; for EC50: HepG2, 24 h, read-out: qPCR 24 Hr (EC50 uM) PCSK9 down-regulation; for fold induction at 10 µM: 20 h, HepG2 cells
Description: (§3) In the primary screen, HepG2 cells were plated in 384-well plates at 2000 cells per well and incubated for 20 hours with each compound in duplicate at 10 microM concentration. Then RNA was isolated, reverse-transcribed to cDNA, and stored at −80° C. Expression levels of TRIB1 and other target genes, such as SORT1 and PCSK9, were determined by quantitative PCR. Relative gene expression level was normalized to expression of the housekeeping gene, GAPDH. A “hit” was defined as those compounds that caused a greater than 2-fold increase in relative target gene expression when normalized to GAPDH expression, compared to DMSO-treated control. Using these criteria, 130 hits were identified for TRIB1 (0.8% hit rate).
(§4) Further analysis of the expression levels of various proteins in the cholesterol and triglyceride biosynthetic pathways in response to TRIB1 inducer treatment was performed. In particular, transcript levels of additional lipoprotein metabolism pathway proteins SCAP, SREBF1, SREBF2, HMGCR, HMGCS, SCD1, FASN and MTTP were assessed by qPCR, along with TRIB1, LDLR, and PCSK9. The gene expression profile for the same subset of genes was also assessed after treatment with the statin atorvastatin (Lipitor), commonly used in therapy for hypercholesterolemia and other cardiovascular diseases.
(§5) The kinetics of the modulation of TRIB1, LDLR, PCSK9 and MTTP gene expression after treatment by select TRIB1 inducer compounds was monitored by qPCR analysis (FIG. 4). RNA was extracted from cells at various timepoints over 28 hours of treatment (0, 2, 4, 6, 8, 24, 28 hours). Specifically, compounds 12a and 14a induced transcriptional responses over time similar to those produced by berberine, a plant alkaloid used in Chinese medicine. […] Both compound 12a and compound 14a induce TRIB1 and LDLR and repress PCSK9 and MTTP expression with similar kinetics and similar fold change as berberine Importantly, both compounds induce these gene expression changes at much lower concentrations than berberine. […] This increased potency indicates the potential therapeutic efficacy of such compounds for treatment of cardiovascular diseases, particularly hypercholesterolemia and related conditions.

LDLR [4] = assay: qPCR LDLR expression in HepG2 cells; type: cell-based, human; details: for EC50: Homo sapiens, HepG2, 6 h, read-out: qPCR 6Hr (EC50 uM) LDLR up-regulation; for qPCR LDLR: HepG2 cells
Description: as §3, §4, §5

TRIB1 [5] = assay: qPCR TRIB1 expression in HepG2 cells; type: cell-based; details: Homo sapiens
HepG2 cells = assay: Cell Titer Glo (CTG) cell viability assay; type: cell-based, human; design: key: A: Increase <2-fold; B: Increase >2-fold; X: Decrease <2-fold; Y: Decrease >2-fold; No significant change; details: cell viability (ATP)
Description: Cell viability was determined using a Cell Titer Glo (CTG) assay ([…]) after treatment with TRIB1 inducer compounds. In this assay, the number of viable cells in culture is based on quantitation of ATP, which indicates metabolically active cells. Addition of the reagent results in cell lysis and generation of a luminescent signal proportional to the amount of ATP present, which is directly proportional to the number of viable, metabolically active cells present in culture. Most TRIB1 inducer compounds had no significant effect on cell viability.

TRIB1 [6] = assay: qPCR TRIB1 expression in HepG2 cells; type: cell-based, human; details: Homo sapiens, 20 h; HepG2 cells
Description: as §3, §4, §5

SCAP = assay: qPCR SCAP transcript level in HepG2 cells; type: cell-based, human; design: key: A: Increase <2-fold; B: Increase >2-fold; X: Decrease <2-fold; Y: Decrease >2-fold; No significant change
Description: as §3, §4

SREBF1 = assay: qPCR SREBF1 transcript level in HepG2 cells; type: cell-based, human; design: key: A: Increase <2-fold; B: Increase >2-fold; X: Decrease <2-fold; Y: Decrease >2-fold; No significant change
Description: as §3, §4

SREBF2 = assay: qPCR SREBF2 transcript level in HepG2 cells; type: cell-based, human; design: key: A: Increase <2-fold; B: Increase >2-fold; X: Decrease <2-fold; Y: Decrease >2-fold; No significant change
Description: as §3, §4

HMGCR = assay: qPCR HMGCR transcript level in HepG2 cells; type: cell-based, human; design: key: A: Increase <2-fold; B: Increase >2-fold; X: Decrease <2-fold; Y: Decrease >2-fold; No significant change
Description: as §3, §4

HMGCS = assay: qPCR HMGCS transcript level in HepG2 cells; type: cell-based; details: Homo sapiens, 20 h
Description: as §3, §4

FASN = assay: qPCR FASN transcript level in HepG2 cells; type: cell-based; details: Homo sapiens, 20 h
Description: as §3, §4

SCD1 = assay: qPCR SCD1 transcript level in HepG2 cells; type: cell-based; details: Homo sapiens, 20 h
Description: as §3, §4

[7] = HepG2, 6 h, read-out: qPCR 6Hr (EC50 uM) TRIB1 up-regulation

Compound | EC50 (LDLR [1]) | EC50 (PCSK9 [2]) | EC50 (PCSK9 [3]) | EC50 (LDLR [4]) | EC50 (TRIB1 [5]; [7]) | ELISA ApoB (ApoB) | ELISA LDLR (LDLR [1]) | ELISA PCSK9 (PCSK9 [2]) | CTG (HepG2 cells) | fold induction at 10 µM (TRIB1 [6]) | qPCR SCAP (SCAP) | qPCR SREBF1 (SREBF1) | qPCR SREBF2 (SREBF2) | fold induction at 10 µM (PCSK9 [3]) | qPCR LDLR (LDLR [4]) | qPCR HMGCR (HMGCR) | fold induction at 10 µM (HMGCS) | fold induction at 10 µM (FASN) | fold induction at 10 µM (SCD1) | other results
CCCNC(=O)N1[C@H](C#N)[C@H](c2ccc(-c3cccnc3)cc2)[C@@H]1CO [Compound 23a] | 0.51 to 1 µM | 1.1 to 2 µM | 1.1 to 2 µM | 2.1 to 5 µM | 2.1 to 5 µM |  |  |  |  |  |  |  |  |  |  |  |  |  |  | ELISA 24 Hr (EC50 uM) ApoB decrease (ApoB): NC
CN1C(=O)c2cc(NC(=O)Nc3ccccc3F)ccc2OC[C@@H]2O[C@H](CC(=O)NCc3ccc(-c4ccccc4)cc3)CC[C@@H]21 [Compound 15a] |  |  |  |  |  |  |  |  |  |  |  |  |  |  |  |  |  |  |  | EC50 (TRIB1 [5]; HepG2, induction of TRIB1 and LDLR transcript levels, read-out: half maximal effective concentration (EC50)): < 1 µM
O=C(C[C@@H]1CC[C@@H]2[C@H](COC[C@@H](O)CN2CCC(F)(F)F)O1)NCc1ccc(Oc2ccccc2)cc1 [Compound 8a] |  |  |  |  |  | Y (Decrease >2-fold) | B (Increase >2-fold) | X (Decrease <2-fold) | N | > 2 | N | N | N | > 2 | B (Increase >2-fold) | Y (Decrease >2-fold) | > 2 | < 2 | < 2 | 
CN(C)C(=O)c1ccc(-c2ccc([C@H]3[C@@H](C#N)N(C(=O)C4CCCC4)[C@H]3CO)cc2)cc1 [Compound 19a] | 2.1 to 5 µM | 1.1 to 2 µM | 1.1 to 2 µM | 1.1 to 2 µM | 2.1 to 5 µM |  |  |  |  |  |  |  |  |  |  |  |  |  |  | EC50 (ApoB; Homo sapiens, HepG2, 24 h, read-out: ELISA 24 Hr (EC50 uM) ApoB decrease): 2.1 to 5 µM
CN(C)C(=O)c1ccc(-c2ccc([C@H]3[C@@H](C#N)N(C(=O)C4CCC4)[C@@H]3CO)cc2)cc1 [Compound 22a] | 1.1 to 2 µM | 2.1 to 5 µM | 1.1 to 2 µM | 2.1 to 5 µM | 2.1 to 5 µM |  |  |  |  |  |  |  |  |  |  |  |  |  |  | ELISA 24 Hr (EC50 uM) ApoB decrease (ApoB): NC
O=C(C[C@H]1CC[C@@H]2[C@H](COC[C@H](O)CN2Cc2ccc(Oc3ccccc3)cc2)O1)N1CCc2ccccc2C1 [Compound 9a] |  |  |  |  |  | Y (Decrease >2-fold) | B (Increase >2-fold) | Y (Decrease >2-fold) | X (Decrease <2-fold) | > 2 | N | N | B (Increase >2-fold) | > 2 | B (Increase >2-fold) | Y (Decrease >2-fold) | > 2 | > 2 | > 2 | 
O=C(C[C@@H]1CC[C@H]2[C@@H](COC[C@H](O)CN2Cc2ccc(Oc3ccccc3)cc2)O1)N1CCc2ccccc2C1 [Compound 6a] |  |  |  |  |  | Y (Decrease >2-fold) | A (Increase <2-fold) | Y (Decrease >2-fold) | N | > 2 | N | N | N | > 2 | A (Increase <2-fold) | N | > 2 | > 2 | > 2 | 
